From US20230174538A1, “Tricyclic heterocycles” (Merck Patent GmbH, priority 2020, published 2023)

What was measured:
Format in all cases: cell-based
YAP-TEAD interaction = assay: SK-HEP-1 reporter assay (8xTEAD responsive elements driving NanoLuc luciferase); conditions: Homo sapiens, SK-HEP1, SK-HEP-1 reporter assay
In short: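 SK-HEP-1 cells stably carrying an 8×TEAD-element NanoLuc reporter were treated in duplicate with 10-point dilutions from a top final 30 μM (0.3% DMSO). After 24 h at 37 °C, luciferase activity was read by luminescence with NanoGlo lysis/substrate reagent, and IC50 values were derived.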

NCI-H226 cells = assay: Viability assay in NCI-H226 (Yap-dependent) cells, CyQUANT; conditions: Homo sapiens
Procedure: (§1) Viability Assay in NCI-H226 (Yap-Dependent) and SW620 Yap KO (Yap Independent) Cells
(§2) The ability of YAP-TEAD inhibitors to inhibit tumor cell growth was evaluated using two different cell lines: NCI-H226, which is a YAP dependent cell line, and SW620 cells, where YAP and TAZ were knocked out using CRISPR to generate a YAP independent cell line.
(§3) For the assay, cells were treated in duplicates with the test compounds in a 10-point dose, 1:3 dilution steps, with the top concentration starting at 30 μM (final concentration in assay). After a 96 hour incubation at 37° C., 95% rH, and 5% CO2, a cell-permeant DNA-binding dye that stains only healthy cells (CyQUANT®, Promega) was added to the cells, allowing the quantification of cell viability.
(§4) Cell Media: The NCI-H226 cells were cultured in the following media: RPMI 1640, +10% FBS, +1× GlutaMAX, +10 mM HEPES, +0.5% Pen/Strep. The SW620-KO cells were cultured in the following media: DMEM/F-12, +10% FBS, +1× GlutaMAX, +10 mM HEPES, +0.5% Pen/Strep.
(§5) Reagents: The reagents used are listed below:
(§6) Cell culture: The cells were examined using an inverted microscope to check for health, cell density, etc. To dissociate adherent cells, the monolayer of cells was washed once with pre-warmed PBS. After removing the PBS, 3 ml pre-warmed Accutase was added to a F75 flask, dispersed evenly and the flask was allowed to sit in incubator for ˜4-5 minutes.
(§7) When a single cell suspension was obtained, 7 ml of prewarmed growth media was added and resuspended with the cells. The cell suspension was transferred to a sterile 15 ml conical centrifuge tube, and spun for 5 min at 300×g, RT. The supernatant was discarded and the pellet was resuspended in 10 ml of pre-warmed growth media.
(§8) The total cell count was determined, and 20 μl of the desired cell number was added to each well of a 384 well plate using a Multidrop Combi. The plates were then incubated for 24 hours at 37° C., 95% rH, and 5% CO2.
(§9) Compound treatment: 24 hours after seeding, the cells were treated with compounds.
(§10) A 1:333 dilution of compounds, diluted in DMSO, was made to get a final concentration of 0.3% DMSO per well. To transfer the compounds to the assay plate, 120 nl was shot from Labcyte low dead volume plates to the cell plates containing 20 μl media/well with the ECHO 555 liquid handling system.
(§11) After treatment, the cells were fed with 20 μl fresh pre-warmed assay media using a Multidrop combi.
(§12) The assay plates were then incubated for 96 h at 37° C., 95% rH, and 5% CO2.
(§13) 96 h after treatment 30 μl of CyQuant® reagent was added to the assay plates using a Multidrop combi in the dark. The plates were then incubated for 1 hour at 37° C., 95% rH and 5% CO2. Thereafter, the assay plates were removed from the incubator and allowed to equilibrate to RT for 30 min in the dark without lid. Finally, they were measured using an EnVision microplate reader with a FITC bottom read program.

SW620 Yap KO cells = assay: Viability assay in SW620 Yap KO (Yap independent) cells, CyQUANT; conditions: Homo sapiens, SW-620
Procedure: as §1, §2, §3, §4, §5, §6, §7, §8, §9, §10, §11, §12, §13

Structure (SMILES)	IC50 (YAP-TEAD interaction) [µM]	IC50 (NCI-H226 cells) [µM]	IC50 (SW620 Yap KO cells) [µM]
CCCn1ncc(CNC(=O)c2ccc3c(c2)c2cn(C)nc2n3-c2ccc(C(F)(F)F)cc2)c1C [B123^]	0.01 to 0.1	0.1 to 1	–
COc1nc(C)cc(CNC(=O)c2ccc3c(c2)c2cn(C)nc2n3-c2ccc(C(F)(F)F)cc2)n1 [B126^]	0.01 to 0.1	0.001 to 0.1	> 30
Cn1cc2c3cc(C(=O)O)ccc3n(Cc3ccc(C(F)(F)F)cc3)c2n1 [Example 5, 2-Methyl-8-{[4-(trifluoromethyl)phenyl]methyl}-2H,8H-pyrazolo[3,4-b]indole-5-carboxylic acid]	0.01 to 0.1	0.001 to 0.1	> 30
Cn1cc2c3cc(C(=O)O)ccc3n(-c3cccc(C(F)(F)F)c3)c2n1 [Example 6, 2-Methyl-8-[3-(trifluoromethyl)phenyl]-2H,8H-pyrazolo[3,4-b]indole-5-carboxylic acid]	0.01 to 0.1	0.1 to 1	> 30
Cc1ccc(-n2c3ccc(C(=O)O)cc3c3cn(C)nc32)cc1 [Example 9, 2-Methyl-8-(4-methylphenyl)-2H,8H-pyrazolo[3,4-b]indole-5-carboxylic acid]	–	0.001 to 0.1	10 to 30
Cn1cc2c3cc(C(=O)O)ccc3n(-c3ccc(F)cc3)c2n1 [Example 10, 8-(4-fluorophenyl)-2-methyl-2H,8H-pyrazolo[3,4-b]indole-5-carboxylic acid]	0.01 to 0.1	0.1 to 1	> 30
Cn1cc2c3cc(C(=O)O)ccc3n(Cc3ccccc3)c2n1 [Example 12, 8-(Benzyl)-2-methyl-2H,8H-pyrazolo[3,4-b]indole-5-carboxylic acid]	0.01 to 0.1	0.1 to 1	> 30
COc1ccc(-n2c3ccc(C(=O)O)cc3c3cn(C)nc32)cc1 [Example 14, 8-(4-methoxyphenyl)-2-methyl-2H,8H-pyrazolo[3,4-b]indole-5-carboxylic acid]	0.01 to 0.1	0.1 to 1	> 30
CNC(=O)c1ccc2c(c1)c1nn(C)cc1n2-c1ccc(C(F)(F)F)cc1 [Example 17, N,2-dimethyl-4-[4-(trifluoromethyl)phenyl]pyrazolo [4,3-b]indole-7-carboxamide]	0.01 to 0.1	0.1 to 1	> 30
Cn1cc2c3cc(C(=O)O)ccc3n(-c3ccc(OC(F)(F)F)cc3)c2n1 [Example 18, 2-methyl-8-[4-(trifluoromethoxy)phenyl]-2H,8H-pyrazolo[3,4-b]indole-5-carboxylic acid]	0.001 to 0.01	0.1 to 1	> 30
Cn1cc2c3cc(C(=O)O)ccc3n(-c3ccc(C4CCCC4)cc3)c2n1 [Example 22, 8-(4-cyclopentylphenyl)-2-methyl-2H,8H-pyrazolo [3,4-b]indole-5-carboxylic acid]	0.01 to 0.1	0.1 to 1	> 30
Cn1cc2c(n1)c1cc(F)ccc1n2-c1ccc(C(F)(F)F)cc1 [Example 26, 7-fluoro-2-methyl-4-[4-(trifluoromethyl)phenyl]pyrazolo[4,3-b]indole]	0.01 to 0.1	> 10	10 to 30
CSc1ccc2c(c1)c1cn(C)nc1n2-c1ccc(C)cc1 [Example 31, 2-methyl-8-(4-methylphenyl)-5-(methylsulfanyl)-2H,8H-pyrazolo[3,4-b]indole]	0.01 to 0.1	> 10	> 30
Cn1cc2c(n1)c1cc([S+](C)[O-])ccc1n2-c1ccc(C(F)(F)F)cc1 (stereo not drawn) [Example 32, 7-methanesulfinyl-2-methyl-4-[4-(trifluoromethyl)phenyl]-2H,4H-pyrazolo[4,3-b]indole]	0.1 to 10	> 10	–
Cn1cc2c(n1)c1cc(S(N)(=O)=O)ccc1n2-c1ccc(C(F)(F)F)cc1 [Example 34, 2-methyl-4-[4-(trifluoromethyl)phenyl]-2H,4H-pyrazolo[4,3-b]indole-7-sulfonamide]	0.01 to 0.1	> 10	> 30
Cn1cc2c(n1)c1cc(S(C)(=N)=O)ccc1n2-c1ccc(C(F)(F)F)cc1 (stereo not drawn) [Example 35, Imino(methyl){2-methyl-4-[4-(trifluoromethyl)phenyl]-2H,4H-pyrazolo[4,3-b]indol-7-yl}-lambda6-sulfanone]	0.001 to 0.01	0.1 to 1	> 30

Further lines, results first:

IC50 (YAP-TEAD interaction) [µM]	IC50 (NCI-H226 cells) [µM]	IC50 (SW620 Yap KO cells) [µM]	Structure (SMILES)
0.1 to 10	–	–	COCC1(C)CCCN1C(=O)c1ccc2c(c1)c1cn(C)nc1n2-c1ccc(C(F)(F)F)cc1 (stereo not drawn) [Example B89, 2-(methoxymethyl)-2-methyl-1-{2-methyl-8-[4-(trifluoromethyl)phenyl]-2H,8H-pyrazolo[3,4-b]indole-5-carbonyl}pyrrolidine]
0.01 to 0.1	–	–	CC(CCn1cncn1)NC(=O)c1ccc2c(c1)c1cn(C)nc1n2-c1ccc(C(F)(F)F)cc1 (stereo not drawn) [Example B90, 2-methyl-N-[4-(1H-1,2,4-triazol-1-yl)butan-2-yl]-8-[4-(trifluoromethyl)phenyl]-2H,8H-pyrazolo[3,4-b]indole-5-carboxamide]
0.01 to 0.1	–	–	Cn1cc2c3cc(C(=O)NC(CF)c4cnnn4C)ccc3n(-c3ccc(C(F)(F)F)cc3)c2n1 (stereo not drawn) [Example B91, N-[2-fluoro-1-(1-methyl-1H-1,2,3-triazol-5-yl)ethyl]-2-methyl-8-[4-(trifluoromethyl)phenyl]-2H,8H-pyrazolo[3,4-b]indole-5-carboxamide]
0.1 to 10	–	–	CC(CNC(=O)c1ccc2c(c1)c1cn(C)nc1n2-c1ccc(C(F)(F)F)cc1)c1ccc(F)cn1 (stereo not drawn) [Example B92, N-[2-(5-fluoropyridin-2-yl)propyl]-2-methyl-8-[4-(trifluoromethyl)phenyl]-2H,8H-pyrazolo[3,4-b]indole-5-carboxamide]
0.01 to 0.1	–	–	COc1nn(C)cc1CNC(=O)c1ccc2c(c1)c1cn(C)nc1n2-c1ccc(C(F)(F)F)cc1 [Example B93, N-[(3-methoxy-1-methyl-1H-pyrazol-4-yl)methyl]-2-methyl-8-[4-(trifluoromethyl)phenyl]-2H,8H-pyrazolo[3,4-b]indole-5-carboxamide]
0.1 to 10	–	–	Cn1cc2c3cc(C(=O)NCCc4cc(C5CC5)on4)ccc3n(-c3ccc(C(F)(F)F)cc3)c2n1 [Example B95, N-[2-(5-cyclopropyl-1,2-oxazol-3-yl)ethyl]-2-methyl-8-[4-(trifluoromethyl)phenyl]-2H,8H-pyrazolo[3,4-b]indole-5-carboxamide]
0.1 to 10	–	–	CCn1nnc(C)c1CNC(=O)c1ccc2c(c1)c1cn(C)nc1n2-c1ccc(C(F)(F)F)cc1 [Example B96, N-[(1-ethyl-4-methyl-1H-1,2,3-triazol-5-yl)methyl]-2-methyl-8-[4-(trifluoromethyl)phenyl]-2H,8H-pyrazolo[3,4-b]indole-5-carboxamide]
0.1 to 10	–	–	Cn1cc2c3cc(C(=O)NCCn4cnnc4C4CC4)ccc3n(-c3ccc(C(F)(F)F)cc3)c2n1 [Example B98, N-[2-(3-cyclopropyl-4H-1,2,4-triazol-4-yl)ethyl]-2-methyl-8-[4-(trifluoromethyl)phenyl]-2H,8H-pyrazolo[3,4-b]indole-5-carboxamide]
> 10	–	–	CCOC1CC(N(C)C(=O)c2ccc3c(c2)c2cn(C)nc2n3-c2ccc(C(F)(F)F)cc2)C1(C)C (stereo not drawn) [Example B99, N-(3-ethoxy-2,2-dimethylcyclobutyl)-N,2-dimethyl-8-[4-(trifluoromethyl)phenyl]-2H,8H-pyrazolo[3,4-b]indole-5-carboxamide]
